Reference: patent US10457709B2, “Antimicrobial peptides, their variants and uses” (priority 2015, dated 2019)
Where two headings read alike, the source gives them in different places. Square brackets hold non-standard residues; d marks the D form. Peptide text beside a SMILES is read from it.

Assays:
[1] = system: Candida albicans clinical strains; experiment: MIC, clinical yeast strains; type: cell-based; design: unit: μg/ml
Summary of the method: (§1)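 Broth microdilution in Mueller Hinton broth, inoculum adjusted to 5.0×10^5 cfu/ml, peptides tested at 0.125 to 128 μg/ml, 37° C for 20 to 24 hours. Yeast assays were run in potato dextrose broth. MIC was taken as the lowest concentration with no visible growth.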

[2] = system: C. quillermondiae clinical strains; experiment: MIC, clinical yeast strains; type: cell-based, Candida quillermondiae; design: unit: μg/ml; conditions: C. quillermondiae clinical yeast strain 1
Summary of the method: as §1

[3] = system: C. glabrata clinical strains; experiment: MIC, clinical yeast strains; type: cell-based, Candida glabrata; design: unit: µg/ml
Summary of the method: as §1

[4] = system: C. parapsilosis clinical strains; experiment: MIC, clinical yeast strains; type: cell-based, Candida parapsilosis; design: unit: µg/ml
Summary of the method: as §1

[5] = system: Pseudomonas aeruginosa clinical strains; type: cell-based; conditions: microdilution, Muller Hinton broth-cation adjusted, 0.02% BSA, 0.2% acetic acid
Summary of the method: as §1

[6] = system: Klebsiella pneumoniae clinical strains; type: cell-based; conditions: microdilution, Muller Hinton broth-cation adjusted, 0.02% BSA, 0.2% acetic acid
Summary of the method: as §1

[7] = system: Escherichia coli clinical strains; type: cell-based; conditions: microdilution, Muller Hinton broth-cation adjusted, 0.02% BSA, 0.2% acetic acid
Summary of the method: as §1

[8] = system: Serratia marcescens clinical strains; type: cell-based; design: Minimum inhibitory concentration: unit: μg/ml; conditions: microdilution, Muller Hinton broth-cation adjusted, 0.02% BSA, 0.2% acetic acid
Summary of the method: as §1

[9] = system: Acinetobacter baumannii clinical strains; type: cell-based; design: Minimum inhibitory concentration: unit: μg/ml; conditions: microdilution, Muller Hinton broth-cation adjusted, 0.02% BSA, 0.2% acetic acid
Summary of the method: as §1

[10] = system: Streptococcus pneumoniae clinical strains; type: cell-based; design: Minimum inhibitory concentration: unit: μg/ml; conditions: microdilution, Muller Hinton broth-cation adjusted, 0.02% BSA, 0.2% acetic acid
Summary of the method: as §1

[11] = system: Proteus mirabilis clinical strains; type: cell-based; design: Minimum inhibitory concentration: unit: μg/ml; conditions: microdilution, Muller Hinton broth-cation adjusted, 0.02% BSA, 0.2% acetic acid
Summary of the method: as §1

[12] = system: Staphylococcus aureus clinical strains; type: cell-based; design: Minimum inhibitory concentration: unit: μg/ml; conditions: microdilution, Muller Hinton broth-cation adjusted, 0.02% BSA, 0.2% acetic acid
Summary of the method: as §1

[13] = system: Enterobacter cloacae clinical strains; type: cell-based; design: Minimum inhibitory concentration: unit: μg/ml; conditions: microdilution, Muller Hinton broth-cation adjusted, 0.02% BSA, 0.2% acetic acid
Summary of the method: as §1

CC[C@@H](C)[C@@H](NC(=O)[C@@H](CC(C)C)NC(=O)[C@@H](CCCNC(=N)N)NC(=O)[C@H](N)CCCNC(=N)N)C(=O)N[C@H](Cc1c[nH]c2ccccc12)C(=O)N[C@H](CCCNC(=N)N)C(=O)N[C@H](CCCNC(=N)N)C(=O)N[C@H](Cc1ccccc1)C(=O)N[C@H](CCCCN)C(=O)N[C@H](Cc1c[nH]c2ccccc12)C(=O)N[C@H](CC(C)C)C(=O)N[C@H](CCCNC(=N)N)C(=O)O [Chain204D] (H-[dR][dR][dL][dI][dW][dR][dR][dF][dK][dW][dL][dR]-OH)
Minimum inhibitory concentration ([1]; Candida albicans clinical yeast strain 1): 8
Minimum inhibitory concentration ([1]; Candida albicans clinical yeast strain 2): 8
Minimum inhibitory concentration ([1]; Candida albicans clinical yeast strain 3): 8
Minimum inhibitory concentration ([1]; Candida albicans clinical yeast strain 4): 8
Minimum inhibitory concentration ([1]; Candida albicans clinical yeast strain 5): 8
Minimum inhibitory concentration [2]: 4
Minimum inhibitory concentration ([3]; C. glabrata clinical yeast strain 1): 4
Minimum inhibitory concentration ([3]; C. glabrata clinical yeast strain 2): 8
Minimum inhibitory concentration ([3]; C. glabrata clinical yeast strain 3): 32
Minimum inhibitory concentration ([3]; C. glabrata clinical yeast strain 4): 32
Minimum inhibitory concentration ([4]; C. parapsilosis clinical yeast strain 1): 4
Minimum inhibitory concentration ([4]; C. parapsilosis clinical yeast strain 2): 4
Minimum inhibitory concentration ([4]; C. parapsilosis clinical yeast strain 3): 8
Minimum inhibitory concentration ([4]; C. parapsilosis clinical yeast strain 4): 8
Minimum inhibitory concentration ([5]; Pseudomonas aeruginosa clinical strain 1): 4
Minimum inhibitory concentration ([5]; Pseudomonas aeruginosa clinical strain 2): 16
Minimum inhibitory concentration ([5]; Pseudomonas aeruginosa clinical strain 3): 8
Minimum inhibitory concentration ([5]; Pseudomonas aeruginosa clinical strain 4): 8
Minimum inhibitory concentration ([5]; Pseudomonas aeruginosa clinical strain 5): 4
Minimum inhibitory concentration ([6]; Klebsiella pneumoniae clinical strain 1): 8
Minimum inhibitory concentration ([6]; Klebsiella pneumoniae clinical strain 2): 4
Minimum inhibitory concentration ([6]; Klebsiella pneumoniae clinical strain 3): 16
Minimum inhibitory concentration ([6]; Klebsiella pneumoniae clinical strain 4): 4
Minimum inhibitory concentration ([6]; Klebsiella pneumoniae clinical strain 5): 2
Minimum inhibitory concentration ([7]; Escherichia coli clinical strain 1): 8
Minimum inhibitory concentration ([7]; Escherichia coli clinical strain 2): 1
Minimum inhibitory concentration ([7]; Escherichia coli clinical strain 3): 1
Minimum inhibitory concentration ([7]; Escherichia coli clinical strain 4): 1
Minimum inhibitory concentration ([7]; Escherichia coli clinical strain 5): 1
Minimum inhibitory concentration ([8]; Serratia marcescens clinical strain 1): >128
Minimum inhibitory concentration ([8]; Serratia marcescens clinical strain 2): >128
Minimum inhibitory concentration ([8]; Serratia marcescens clinical strain 3): 128
Minimum inhibitory concentration ([8]; Serratia marcescens clinical strain 4): >128
Minimum inhibitory concentration ([8]; Serratia marcescens clinical strain 5): >128
Minimum inhibitory concentration ([9]; Acinetobacter baumannii clinical strain 1): 4
Minimum inhibitory concentration ([9]; Acinetobacter baumannii clinical strain 2): 4
Minimum inhibitory concentration ([9]; Acinetobacter baumannii clinical strain 3): 4
Minimum inhibitory concentration ([9]; Acinetobacter baumannii clinical strain 4): 4
Minimum inhibitory concentration ([9]; Acinetobacter baumannii clinical strain 5): 4
Minimum inhibitory concentration ([10]; Streptococcus pneumoniae clinical strain 1): 4
Minimum inhibitory concentration ([10]; Streptococcus pneumoniae clinical strain 2): 4
Minimum inhibitory concentration ([10]; Streptococcus pneumoniae clinical strain 3): 4
Minimum inhibitory concentration ([10]; Streptococcus pneumoniae clinical strain 4): 4
Minimum inhibitory concentration ([10]; Streptococcus pneumoniae clinical strain 5): 4
Minimum inhibitory concentration ([11]; Proteus mirabilis clinical strain 1): >128
Minimum inhibitory concentration ([11]; Proteus mirabilis clinical strain 2): 32
Minimum inhibitory concentration ([11]; Proteus mirabilis clinical strain 3): 64
Minimum inhibitory concentration ([11]; Proteus mirabilis clinical strain 4): >128
Minimum inhibitory concentration ([11]; Proteus mirabilis clinical strain 5): >128
Minimum inhibitory concentration ([12]; Staphylococcus aureus clinical strain 1): 1
Minimum inhibitory concentration ([12]; Staphylococcus aureus clinical strain 2): 2
Minimum inhibitory concentration ([12]; Staphylococcus aureus clinical strain 3): 2
Minimum inhibitory concentration ([12]; Staphylococcus aureus clinical strain 4): 1
Minimum inhibitory concentration ([12]; Staphylococcus aureus clinical strain 5): 1
Minimum inhibitory concentration ([13]; Enterobacter cloacae clinical strain 1): 4
Minimum inhibitory concentration ([13]; Enterobacter cloacae clinical strain 2): 8
Minimum inhibitory concentration ([13]; Enterobacter cloacae clinical strain 3): 4
Minimum inhibitory concentration ([13]; Enterobacter cloacae clinical strain 4): 8
Minimum inhibitory concentration ([13]; Enterobacter cloacae clinical strain 5): 2
